Test results from patent US12590106B2, “Spiromacrocyclic orexin 2 receptor agonists” (H. Lundbeck A/S, priority 2023, dated 2026).

Target: T1, human Ox2R (Homo sapiens, UniProt O43614)
T1 construct: The gene encoding hOx2R was subcloned into the expression plasmid pcDNA5/FRT/TO; expressed in transfected cells; host or cells: CHO Flp-In cells (pcDNA5/FRT/TO with pOG44 Flp recombinase vector, hygromycin B selection)
T1 sequence (O43614 1-444): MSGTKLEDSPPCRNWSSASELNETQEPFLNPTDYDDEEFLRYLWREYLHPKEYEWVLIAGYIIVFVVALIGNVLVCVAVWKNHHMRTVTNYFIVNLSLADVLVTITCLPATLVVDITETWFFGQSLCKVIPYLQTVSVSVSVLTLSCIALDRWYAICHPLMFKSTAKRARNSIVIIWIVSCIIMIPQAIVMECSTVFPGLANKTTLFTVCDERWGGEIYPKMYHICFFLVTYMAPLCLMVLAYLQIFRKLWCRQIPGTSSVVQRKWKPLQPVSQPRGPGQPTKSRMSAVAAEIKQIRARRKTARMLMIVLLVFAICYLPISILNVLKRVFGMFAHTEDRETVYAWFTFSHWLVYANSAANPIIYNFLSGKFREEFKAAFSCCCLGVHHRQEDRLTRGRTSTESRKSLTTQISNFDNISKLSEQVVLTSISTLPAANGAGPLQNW
Test: Measurement of OX2R agonist activity (cell-based calcium release assay)
Details: hOx2R-CHO Flp-In cells, n≥2 tests; for EC50: intracellular calcium, read-out: EC50; for Emax: read-out: Emax (%)
Procedure, shortened: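 CHO Flp-In cells stably expressing human Ox2R, dye-loaded 1 h at 37 °C in HBSS/20 mM HEPES pH 7.4 with 2.5 mM probenecid and 10 mM CaCl2, then stimulated with compound.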

[1] = normalized to assay buffer (0%) and 10 μM Danavorexton (100%)

EC50 [nM] | Emax [1] [%] | Structure (SMILES) | Emax (%) [1] [%]
3 | 100 | CS(=O)(=O)N[C@H]1CC[C@@]2(CO[C@H]3CC[C@H](CC3)c3ccccc3OCc3noc2n3)C1 [Example 64, N-[(1s,1′S,14R,17s)-spiro[8,12,16-trioxa-11,22-diazatetracyclo[15.2.2.110,13.02,7]docosa-2,4,6,10,13(22)-pentaene-14,3′-cyclopentane]-1′-yl]methanesulfonamide] | –
45 | 99 | CS(=O)(=O)N[C@H]1CC[C@@]2(CO[C@H]3CC[C@H](CC3)c3ccccc3OCc3nc2no3)C1 [Example 65, N-[(1s,1′S,14R,17s)-spiro[8,11,16-trioxa-12,22-diazatetracyclo[15.2.2.110,13.02,7]docosa-2,4,6,10(22),12-pentaene-14,3′-cyclopentane]-1′-yl]methanesulfonamide] | –
81 | 94 | CS(=O)(=O)N[C@H]1CC[C@@]2(CO[C@H]3CC[C@H](CC3)c3ncccc3OCc3coc2n3)C1 [Example 66, N-[(1s,1′S,14R,17s)-spiro[8,12,16-trioxa-3,22-diazatetracyclo[15.2.2.110,13.02,7]docosa-2,4,6,10,13(22)-pentaene-14,3′-cyclopentane]-1′-yl]methanesulfonamide] | –
1200 | 94 | CS(=O)(=O)N[C@H]1CC[C@@]2(COCCCc3cccc(c3)OCc3coc2n3)C1 [Example 67, N-[(1S,8S)-spiro[2,6,10-trioxa-19-azatricyclo[12.3.1.14,7]nonadeca-1(18),4,7(19),14,16-pentaene-8,3′-cyclopentane]-1′-yl]methanesulfonamide] | –
1.5 | 98 | Cc1oc2nc1COc1ccccc1-c1cccc(c1)C[C@@]21CC[C@H](NS(C)(=O)=O)C1 [Example 68, N-[(1′S,14R)-11-methylspiro[8,12-dioxa-21-azatetracyclo[14.3.1.110,13.02,7]henicosa-1(19),2,4,6,10,13(21),16(20),17-octaene-14,3′-cyclopentane]-1′-yl]methanesulfonamide] | –
0.2 | 96 | CS(=O)(=O)N[C@H]1CC[C@@]2(Cc3ccc(F)c(c3)-c3cc(F)cc(F)c3OCc3coc2n3)C1 [Example 69, N-[(1′S,14R)-4,6,19-trifluorospiro[8,12-dioxa-21-azatetracyclo[14.3.1.110,13.02,7]henicosa-1(19),2,4,6,10,13(21),16(20),17-octaene-14,3′-cyclopentane]-1′-yl]methanesulfonamide] | –
1.8 | 98 | CS(=O)(=O)N[C@H]1CC[C@@]2(CO[C@H]3CC[C@H](CC3)c3cccc(c3)OCCc3coc2n3)C1 [Example 70, N-[(1s,1′S,14R,17s)-spiro[7,12,16-trioxa-22-azatetracyclo[15.2.2.12,6.110,13]tricosa-2,4,6(23),10,13(22)-pentaene-14,3′-cyclopentane]-1′-yl]methanesulfonamide] | –
49 | 97 | CS(=O)(=O)N[C@H]1CC[C@@]2(Cc3ccc(F)c(c3)-c3cccc(F)c3OCC3=NN=C2O3)C1 [Example 71, N-[(1′S,14R)-6,19-difluorospiro[8,21-dioxa-11,12-diazatetracyclo[14.3.1.110,13.02,7]henicosa-1(19),2(7),3,5,10,12,16(20),17-octaene-14,3′-cyclopentane]-1′-yl]methanesulfonamide] | –
190 | 97 | CS(=O)(=O)N[C@H]1CC[C@@]2(CO[C@H]3C[C@H](C3)c3ccccc3OCc3coc2n3)C1 [Example 72, N-[(1′S,10r,12s,15S)-spiro[3,13,17-trioxa-19-azatetracyclo[14.2.1.110,12.04,9]icosa-1(18),4,6,8,16(19)-pentaene-15,3′-cyclopentane]-1′-yl]methanesulfonamide] | –
0.94 | 98 | CS(=O)(=O)N[C@H]1CC[C@@]2(CO[C@H]3CC[C@H](CC3)c3cccc(c3)OCc3cnc2o3)C1 [Example 73, N-[(1s,1′S,13S,16s)-spiro[7,15,21-trioxa-11-azatetracyclo[14.2.2.12,6.19,12]docosa-2,4,6(22),9,11-pentaene-13,3′-cyclopentane]-1′-yl]methanesulfonamide] | –
92 | 100 | CS(=O)(=O)N[C@H]1CC[C@@]2(Cc3cccc(c3)-c3cccnc3NCc3coc2n3)C1 [Example 74, N-[(1′S,14R)-spiro[12-oxa-6,8,21-triazatetracyclo[14.3.1.110,13.02,7]henicosa-1(20),2,4,6,10,13(21),16,18-octaene-14,3′-cyclopentane]-1′-yl]methanesulfonamide] | –
1.4 | 100 | CS(=O)(=O)N[C@H]1CC[C@]2(CC1)Cc1cccc(c1)-c1cccc(F)c1OCc1coc2n1 [Example 75, N-(cis)-(6-fluorospiro[8,12-dioxa-21-azatetracyclo[14.3.1.110,13.02,7]henicosa-1(20),2,4,6,10,13(21),16,18-octaene-14,4′-cyclohexane]-1′-yl)methanesulfonamide] | –
0.26 | 99 | CS(=O)(=O)N[C@H]1CC[C@@]2(Cc3ccc(Cl)c(c3)-c3cc(F)cc(F)c3OCc3coc2n3)C1 [Example 76, N-[(1′S,14R)-19-chloro-4,6-difluoro-spiro[8,12-dioxa-21-azatetracyclo[14.3.1.110,13.02,7]henicosa-1(19),2,4,6,10,13(21),16(20),17-octaene-14,3′-cyclopentane]-1′-yl]methanesulfonamide] | –
20 | 100 | O=S(=O)(N[C@H]1CC[C@@]2(Cc3cccc(c3)-c3cccc(F)c3OCc3coc2n3)C1)C1CCOC1 (stereo partly drawn) [Example 79, N-[(1′S,14R)-6-fluorospiro[8,12-dioxa-21-azatetracyclo[14.3.1.110,13.02,7]henicosa-1(19),2,4,6,10,13(21),16(20),17-octaene-14,3′-cyclopentane]-1′-yl]tetrahydrofuran-3-sulfonamide] | –
9900 | 66 | CS(=O)(=O)N[C@H]1CC[C@@]2(Cc3cccc(n3)-c3ccccc3OCc3coc2n3)C1 [Example 80, N-[(1′S,14S)-spiro[8,12-dioxa-20,21-diazatetracyclo[14.3.1.110,13.02,7]henicosa-1(20),2,4,6,10,13(21),16,18-octaene-14,3′-cyclopentane]-1′-yl]methanesulfonamide] | –
0.068 | 100 | Cn1cc2c(n1)OCc1coc(n1)[C@]1(CC[C@H](NS(C)(=O)=O)C1)Cc1ccc(F)c-2c1 [Example 81, N-[(1′S,13R)-18-fluoro-4-methyl-spiro[7,11-dioxa-4,5,20-triazatetracyclo[13.3.1.19,12.02,6]icosa-1(18),2,5,9,12(20),15(19),16-heptaene-13,3′-cyclopentane]-1′-yl]methanesulfonamide] | –
3.7 | 100 | CS(=O)(=O)N[C@H]1CC[C@@]2(Cc3ccc(F)c(c3)-c3cccc(F)c3OCc3ccnc2n3)C1 [Example 82, N-[(1′S,15R)-6,20-difluorospiro[8-oxa-13,22-diazatetracyclo[15.3.1.110,14.02,7]docosa-1(20),2(7),3,5,10,12,14(22),17(21),18-nonaene-15,3′-cyclopentane]-1′-yl]methanesulfonamide] | –
2.6 | 100 | Cn1cc2c(n1)OCc1coc(n1)[C@]1(CC[C@H](NS(C)(=O)=O)C1)Cc1cc-2c(F)cc1F [Example 83, N-[(1′S,13R)-16,18-difluoro-4-methyl-spiro[7,11-dioxa-4,5,20-triazatetracyclo[13.3.1.19,12.02,6]icosa-1(18),2,5,9,12(20),15(19),16-heptaene-13,3′-cyclopentane]-1′-yl]methanesulfonamide] | –
0.25 | 100 | CCS(=O)(=O)N[C@H]1CC[C@@]2(Cc3cc(c(F)cc3F)-c3cccc(F)c3OCc3coc2n3)C1 [Example 84, N-[(1′S,14R)-6,17,19-trifluorospiro[8,12-dioxa-21-azatetracyclo[14.3.1.110,13.02,7]henicosa-1(19),2,4,6,10,13(21),16(20),17-octaene-14,3′-cyclopentane]-1′-yl]ethanesulfonamide] | –

Structure (SMILES) | EC50 [nM] | Emax [1] [%] | Emax (%) [1] [%]
C[C@@H]1C[C@@H](NS(C)(=O)=O)C[C@@]12Cc1ccc(F)c(c1)-c1ccccc1OCc1coc2n1 [Example 63, N-[(1′R,4′R,14S)-19-fluoro-4′-methyl-spiro[8,12-dioxa-21-azatetracyclo[14.3.1.110,13.02,7]henicosa-1(19),2,4,6,10,13(21),16(20),17-octaene-14,3′-cyclopentane]-1′-yl]methanesulfonamide or N-[(1′S,4′S,14R)-19-fluoro-4′-methyl-spiro[8,12-dioxa-21-azatetracyclo[14.3.1.110,13.02,7]henicosa-1(19),2,4,6,10,13(21),16(20),17-octaene-14,3′-cyclopentane]-1′-yl]methanesulfonamide] | 1.4 | – | 100
